Patent publication US9353067B2, “Heterocyclic compounds and uses thereof in the treatment of sexual disorders” (ATIR Holding S.A., priority 2011, dated 2016)

Columns and labels:
[1] = tested on: Adrenergic α2 receptor; assay: Competitive binding, rauwolscine radioligand; parameters: species or system Wistar rat
Protocol: R-55 (which comprises a 3-hydroxyphenyl moiety) and the structurally related compounds N-108 (2-{[4-(2-ethoxyphenyl)piperazin-1-yl]methyl}quinazolin-4(3H)-one) and B-39 (7-chloro-2-((5,6-dihydro-4-(2-methoxyphenyl)pyridin-1(2H)-yl)methyl)quinazolin-4(3H)-one) were assayed for competitive binding to a variety of receptors, including D4.4 type dopamine receptor, in order to assess their specificity for D4.4 dopamine receptors.
The receptors were expressed as human recombinant proteins in CHO cells, except for adrenergic α1 and α2 receptors which were expressed in Wistar rat brain and cerebral cortex cells, respectively, and melanocortin MC4 receptor which was expressed in human recombinant HEK-293 cells. Binding was determined using the following radioligands in the presence of various concentrations of the tested compound:
0.7 nM rauwolscine for adrenergic α2 receptor,
The binding assays were performed in accordance with procedures described in the literature (Greengrass & Bremner, 1979; Boyajian & Leslie, 1987; Broadhurst, 1988; Lewis, 2001; Sutton, 1995; Dearry, 1990; Zhou, 1990; Grandy, 1989; Hayes, 1992; Sokoloff, 1990; Van Tol, 1991; Van Tol 1992; Sunahara, 1991; Weinshank, 1991; Schioth, 1996; Schioth 1997; Martin & Humphrey, 1994; May, 2003; Wolf & Schutz, 1997).

[2] = biological target: PARP-1 (Homo sapiens (Human), UniProt P09874); assay: Universal Chemiluminescent PARP Assay; assay type: biochemical
Chain of PARP-1 (P09874 whole entry): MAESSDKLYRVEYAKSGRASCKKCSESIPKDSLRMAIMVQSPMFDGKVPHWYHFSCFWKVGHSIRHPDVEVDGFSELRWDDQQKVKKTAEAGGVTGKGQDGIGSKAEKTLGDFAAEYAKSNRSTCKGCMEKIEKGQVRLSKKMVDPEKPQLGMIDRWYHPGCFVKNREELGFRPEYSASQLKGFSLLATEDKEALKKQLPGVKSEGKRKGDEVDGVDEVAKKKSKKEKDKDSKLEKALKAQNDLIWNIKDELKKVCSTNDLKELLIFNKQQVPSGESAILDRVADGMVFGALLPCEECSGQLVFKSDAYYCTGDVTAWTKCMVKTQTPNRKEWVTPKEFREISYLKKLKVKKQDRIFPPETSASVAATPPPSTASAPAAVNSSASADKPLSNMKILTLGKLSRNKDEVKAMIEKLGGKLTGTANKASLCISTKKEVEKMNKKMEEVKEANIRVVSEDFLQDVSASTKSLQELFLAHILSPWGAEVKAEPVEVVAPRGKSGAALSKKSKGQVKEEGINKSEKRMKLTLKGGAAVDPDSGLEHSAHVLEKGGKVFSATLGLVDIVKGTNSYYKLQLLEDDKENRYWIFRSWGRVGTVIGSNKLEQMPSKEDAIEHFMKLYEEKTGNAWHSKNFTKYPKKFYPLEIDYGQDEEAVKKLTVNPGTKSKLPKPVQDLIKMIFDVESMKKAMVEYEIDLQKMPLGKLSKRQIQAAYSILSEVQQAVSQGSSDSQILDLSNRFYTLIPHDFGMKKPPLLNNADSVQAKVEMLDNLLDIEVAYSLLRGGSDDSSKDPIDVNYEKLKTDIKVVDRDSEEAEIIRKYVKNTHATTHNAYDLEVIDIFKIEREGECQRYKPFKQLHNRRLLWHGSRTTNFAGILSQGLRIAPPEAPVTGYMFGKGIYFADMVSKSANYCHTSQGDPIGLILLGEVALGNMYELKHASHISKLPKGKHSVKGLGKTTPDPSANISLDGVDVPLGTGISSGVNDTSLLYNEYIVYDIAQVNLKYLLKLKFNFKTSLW
Protocol: In addition, R-55 and its hydrochloride salt were assayed for PARP (poly(ADP-ribose)polymerase) inhibitory activity, as some quinazolinone derivatives, particularly derivatives comprising quinazolinone linked via a three-carbon moiety to substituted pyridinyl and piperazinyl moieties, have been identified as potent PARP inhibitors [U.S. Patent Application Publication No. 2004/0077667; Iwashita et al., FEBS Lett 579:1389-1393(2005); Hattori et al., J Med Chem 47:4151-4154(2004)]. PARP plays a natural role in repair of DNA damage, and inhibition of PARP may lead to undesirable side effects in any treatment of a sexual disorder.
Inhibition of PARP-1 was assayed using a Universal Chemiluminescent PARP Assay (Trevigen, Inc.).
The tested compounds were diluted from 2.1 mg of powder in 25 μl of DMSO. The tested compounds were diluted to 100 μM in 1% DMSO/99% ethanol. 3-Aminobenzamide (3-AB), a commercially available weak PARP inhibitor, was used as a positive control. The activity of PARP was quantified as relative light units (RLU). Each of the tested compounds was assayed twice.
In Assay 1, the 100 μM stock solution was diluted to 40 μM in 1×PARP buffer. The compounds were then serially diluted down to 0.4 μM. Each tested compound was
further diluted 1:4 during the assay, so the final concentrations ranged from 10 μM to 0.1 μM.
In Assay 2, the 100 μM stock was added to 1×PARP buffer to prepare samples with concentrations ranging from 40 μM to 2 μM. A 10 μM stock solution was added to 1×PARP buffer to prepare samples with concentrations of 1 μM and 0.4 μM. Each tested compound was further diluted 1:4 during the assay, so the final concentrations ranged from 10 μM to 0.1 μM.

Question: Which results are given for `O=c1[nH]c(CN2CCN(c3cccc(O)c3)CC2)nc2ccccc12` [Compound R-55, 2-((4-(3-hydroxyphenyl)piperazin-1-yl)methyl)quinazolin-4-one]?
Answer: Competitive binding (%) at 5 μM of tested compound [1]: 39%; inhibition at 5 µM ([2]; 5 μM, average results from two assays): 19%; inhibition at 10 µM ([2]; 10 μM, average results from two assays): 21%; inhibition of PARP (in words) ([2]; Assay 1 and Assay 2, 0.1 μM to 10 μM): did not exhibit any significant inhibition of PARP
